Measured values reported in patent US8071600B2, “Derivatives of 4-piperazin-1-yl-4-benzo[B]thiophene suitable for the treatment of CNS disorders” (Otsuka Pharmaceutical Co., Ltd., priority 2005, dated 2011).

Columns and labels:
Dopamine D2 receptor = molecular target: T1, Dopamine D2 receptor (Rattus norvegicus, UniProt P61169); test: Dopamine D2 receptor binding assay ([3H]-raclopride); details: Dopamine D2 receptor binding test, rat corpus striatum membrane, Ki calculated from IC50 by Cheng-Prussoff formula
T1 construct: from tissue; host or cells: Wistar rat brain, corpus striatum membranes
T1 sequence (P61169 whole entry): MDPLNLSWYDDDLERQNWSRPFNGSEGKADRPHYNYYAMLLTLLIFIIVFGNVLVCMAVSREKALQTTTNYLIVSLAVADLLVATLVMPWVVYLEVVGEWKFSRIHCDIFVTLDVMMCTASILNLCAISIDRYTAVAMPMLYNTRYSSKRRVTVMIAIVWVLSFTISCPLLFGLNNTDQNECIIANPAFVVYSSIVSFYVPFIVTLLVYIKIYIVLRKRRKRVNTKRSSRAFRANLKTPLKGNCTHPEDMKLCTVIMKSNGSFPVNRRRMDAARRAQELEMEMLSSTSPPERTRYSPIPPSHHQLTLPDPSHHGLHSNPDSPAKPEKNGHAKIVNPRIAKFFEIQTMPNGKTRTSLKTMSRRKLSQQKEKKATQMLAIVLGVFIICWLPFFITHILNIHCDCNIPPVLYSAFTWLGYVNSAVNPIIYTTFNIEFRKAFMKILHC
Protocol: 1) Dopamine D2 Receptor Binding Assay
The assay was performed according to the method by Kohler et al. (Kohler C, Hall H, Ogren S O and Gawell L, Specific in vitro and in vivo binding of 3H-raclopride. A potent substituted benzamide drug with high affinity for dopamine D-2 receptors in the rat brain. Biochem. Pharmacol., 1985; 34: 2251-2259).
Wistar male rats were decapitated, the brain was retrieved immediately and corpus striatum was taken out. It was homogenized in 50 mM tris(hydroxymethyl)aminomethane (Tris)-hydrochloric acid buffer (pH 7.4) of a volume 50 times of the weight of the tissue using a homogenizer with a high-speed rotating blade, and centrifuged at 4° C., 48,000×g for 10 minutes. The obtained precipitate was suspended again in the above-described buffer of a volume 50 times of the weight of the tissue and after incubated at 37° C. for 10 minutes, centrifuged in the above-described condition. The obtained precipitate was suspended in 50 mM (Tris)-hydrochloric acid buffer (containing 120 mM NaCl, 5 mM KCl, 2 mM CaCl2, 1 mM MgCl2, pH 7.4) of a volume 25 times of the weight of the tissue and preserved by freezing at −85° C. till it was used for binding assay as a membrane specimen.
The binding assay was performed using 40 μl of the membrane specimen, 20 μl of [^3H]-raclopride (final concentration 1 to 2 nM), 20 μl of a test drug and 50 mM Tris-hydrochloric acid buffer (containing 120 mM NaCl, 5 mM KCl, 2 mM CaCl2, 1 mM MgCl2, pH 7.4) so that the total amount was 200 μl (final dimethylsulfoxide concentration 1%). The reaction was performed at room temperature for 1 hour and terminated by conducting suction filtration with a cell harvester on a glass fiber filter plate. The filter plate made of glass fiber was washed with 50 mM Tris-hydrochloric acid buffer (pH 7.4), and after dried, a microplate liquid scintillation cocktail was added and the radioactivity was measured with a microplate scintillation counter. Radioactivity in the presence of 10 μM (+)-butaclamol hydrochloride was assumed as nonspecific binding.
(§1) IC50 value was calculated from concentration-dependent reaction using a non-linear analysis program. Ki value was calculated from IC50 value using Cheng-Prussoff formula.

[1] = tested on: serotonin (5-HT) uptake by rat brain synaptosome; test: Serotonin (5-HT) uptake inhibitory activity by rat brain synaptosome; format: biochemical; details: test compound 300 nM, tritium labeled 5-HT 8 nM, 10 minutes uptake at 37° C.
Protocol: Measurement of serotonin (5-HT) uptake inhibitory activity of a test compound by rat brain synaptosome
Wistar male rats were decapitated, the brain was retrieved and frontal cortex was dissected out, and it was homogenized in 0.32 M sucrose solution of a weight 20 times of the weight of the tissue using a Potter type homogenizer. The homogenate was centrifuged at 4° C., 1,000×g for 10 minutes, the obtained supernatant was further centrifuged at 4° C., 20,000×g for 20 minutes, and the pellet was suspended in an incubation buffer (20 mM Hepes buffer (pH 7.4) containing 10 mM glucose, 145 mM sodium chloride, 4.5 mM potassium chloride, 1.2 mM magnesium chloride, 1.5 mM calcium chloride), which was used as crude synaptosome fraction.
5-HT uptake reaction was performed in a volume of 200 μl using a 96-well round bottom plate and pargyline (final concentration 10 μM) and sodium ascorbate (final concentration 0.2 mg/ml) were contained in the incubation buffer upon reaction and used.
Incubation buffer (total counting), non-labeled 5-HT (final concentration 10 μM, non-specific counting) and the diluted test compound (final concentration 300 nM) were added to each well. One-tenth quantity of the final volume of the synaptosome fraction was added and after preincubated at 37° C. for 10 minutes, tritium labeled 5-HT solution (final concentration 8 nM) was added and uptake reaction was started at 37° C. The uptake time was 10 minutes and the reaction was terminated by vacuum filtration through a 96-well fiber glass filter paper plate, and after the filter paper was washed with cold normal saline, it was dried enough and Microscint0 (Perkin-Elmer) was added to the filter and remaining radioactivity on the filter was measured.
Serotonin uptake inhibitory activity (%) was calculated from the radioactivity of total counting as 100%, of non-specific counting as 0%, and of counting obtained with test compound. % of inhibition of 5-HT(%)=100−[(Count obtained with test compound−Nonspecific count (0% Uptake))/(Total count (100% Uptake)−Nonspecific count (0% Uptake))]×100 The results are shown in the next Table 314.

[2] = molecular target: T2, Serotonin 5-HT2A receptor (Rattus norvegicus, UniProt P14842); test: Serotonin 5-HT2A receptor binding assay ([3H]-Ketanserin); details: Serotonin 5-HT2A receptor binding test, rat frontal cortex membrane, Ki calculated from IC50 by Cheng-Prussoff formula
T2 construct: from tissue; host or cells: Wistar rat brain, frontal cortex membranes
T2 sequence (P14842 whole entry): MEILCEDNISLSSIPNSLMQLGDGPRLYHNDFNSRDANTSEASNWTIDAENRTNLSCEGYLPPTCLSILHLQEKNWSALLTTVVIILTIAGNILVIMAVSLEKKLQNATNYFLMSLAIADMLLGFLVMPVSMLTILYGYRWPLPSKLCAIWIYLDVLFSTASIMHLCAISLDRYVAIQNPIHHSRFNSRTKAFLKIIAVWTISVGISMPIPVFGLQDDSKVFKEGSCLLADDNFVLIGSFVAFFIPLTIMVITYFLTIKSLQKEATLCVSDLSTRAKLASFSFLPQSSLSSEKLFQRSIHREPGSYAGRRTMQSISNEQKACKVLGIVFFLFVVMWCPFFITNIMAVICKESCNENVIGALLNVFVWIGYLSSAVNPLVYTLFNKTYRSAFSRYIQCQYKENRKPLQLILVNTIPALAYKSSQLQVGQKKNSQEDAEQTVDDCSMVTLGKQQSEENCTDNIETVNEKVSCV
Protocol: 2) Serotonin 5-HT2A Receptor Binding Assay
The assay was performed according to the method by Leysen J E et al. (Leysen J E, Niemegeers C J E, Van Nueten J M and Laduron P M. [3H] Ketanserin (R 41 468), a selective 3H-ligand for serotonin 2 receptor binding sites. Mol. Pharmacol., 1982, 21: 301-314).
Wistar male rats were decapitated, the brain was retrieved immediately and frontal cortex was taken out. It was homogenized in 0.25 M sucrose of a volume 10 times of the weight of the tissue using a Teflon glass homogenizer, and centrifuged at 4° C., 1,000×g for 10 minutes. The obtained supernatant was transferred to another centrifuge tube and suspended in 0.25 M sucrose of a volume 5 times of the weight of the tissue and the precipitate was centrifuged in the above-described condition. The obtained supernatant was combined with the supernatant obtained above and adjusted to a volume 40 times of the weight of the tissue with 50 mM Tris-hydrochloric acid buffer (pH 7.4), and centrifuged at 4° C., 35,000×g for 10 minutes. The obtained precipitate was suspended again in the above-described buffer of a volume 40 times of the weight of the tissue and centrifuged in the above-described condition. The obtained precipitate was suspended in the above-described buffer of a volume 20 times of the weight of the tissue and preserved by freezing at −85° C. till it was used for binding assay as a membrane specimen.
The binding assay was performed using 40 μl of the membrane specimen, 20 μl of [^3H]-Ketanserin (final concentration 1 to 3 nM), 20 μl of a test drug and 50 mM Tris-hydrochloric acid buffer (pH 7.4) so that the total amount was 200 μl (final dimethylsulfoxide concentration 1%). The reaction was performed at 37° C. for 20 minutes and terminated by conducting suction filtration with a cell harvester on a glass fiber filter plate.
The filter plate made of glass fiber was washed with 50 mM Tris-hydrochloric acid buffer (pH 7.4), and after dried, a microplate liquid scintillation cocktail was added and the radioactivity was measured with a microplate scintillation counter. Radioactivity in the presence of 10 μM spiperone was assumed as nonspecific binding.
as §1

[3] = molecular target: Human recombinant dopamine D2 receptor (Homo sapiens, UniProt P14416); details: forskolin-stimulated D2 receptor expressing CHO cells; well without test compound = 100%
Chain of Human recombinant dopamine D2 receptor (P14416 whole entry): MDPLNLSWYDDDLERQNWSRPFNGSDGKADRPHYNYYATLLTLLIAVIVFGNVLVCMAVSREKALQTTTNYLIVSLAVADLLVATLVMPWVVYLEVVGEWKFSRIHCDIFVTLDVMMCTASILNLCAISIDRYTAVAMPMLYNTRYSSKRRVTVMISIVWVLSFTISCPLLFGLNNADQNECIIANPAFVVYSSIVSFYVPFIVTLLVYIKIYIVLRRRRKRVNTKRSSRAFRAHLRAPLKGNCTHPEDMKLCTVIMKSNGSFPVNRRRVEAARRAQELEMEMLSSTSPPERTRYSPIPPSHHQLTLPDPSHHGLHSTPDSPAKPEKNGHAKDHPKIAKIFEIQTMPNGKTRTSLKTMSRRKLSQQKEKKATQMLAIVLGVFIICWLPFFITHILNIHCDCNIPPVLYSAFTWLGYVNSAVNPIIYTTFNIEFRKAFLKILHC
Protocol: Partial agonistic activity on dopamine D2 receptor using D2 receptor expression cells
Partial agonistic activity on dopamine D2 receptor was evaluated by quantitatively determining cyclic AMP production inhibitory effect of a test compound in dopamine D2 receptor expression cells in which adenosine 3′,5′-cyclic monophosphate (cyclic AMP) production was induced by forskolin stimulation.
Human recombinant dopamine D2 receptor expressing Chinese hamster ovary/DHFR(−) cells were cultured in a culture medium (Iscove's Modified Dulbecco's Medium (IMDM culture medium), 10% fetal bovine serum, 50 I.U./ml penicillin, 50 μg/ml streptomycin, 200 μg/ml geneticin, 0.1 mM sodium hypoxanthine, 16 μM thymidine) at 37° C. and 5% carbon dioxide condition. Cells were seeded at 10^4 cells/well on a 96-well microtiter plate coated with poly-L-lysine and grown under the same condition for 2 days. Each well was washed with 100 μl of a culture medium (IMDM culture medium, 0.1 mM sodium hypoxanthine, 16 μM thymidine).

## COC(=O)N1CCN(c2cc(CO)c(OCCCN3CCN(c4cccc5sccc45)CC3)c(OC)c2)CC1 [Example 1087]
other
  melting point: 128 to 130 °C
Dopamine D2 receptor
  Ki: 0.3 nM
[1]
  Serotonin uptake inhibitory ratio (%) (300 nM): 97.1%
[2]
  Ki: 2.6 nM

## COc1cc(NC(=O)CNC(C)=O)cc(C)c1OCCCN1CCN(c2cccc3sccc23)CC1 [Example 1061]
other
  melting point: 167.5 to 170.5 °C
Dopamine D2 receptor
  Ki: 0.1 nM
[1]
  Serotonin uptake inhibitory ratio (%) (300 nM): 97.5%
[2]
  Ki: 1.2 nM

## COc1cc(NC(=O)CN)cc(C)c1OCCCN1CCN(c2cccc3sccc23)CC1 [Example 1060]
Dopamine D2 receptor
  Ki: 0.1 nM
[1]
  Serotonin uptake inhibitory ratio (%) (300 nM): 97.5%
[2]
  Ki: 1.2 nM

## NCCc1ccc(O)c(O)c1 [dopamine]
[3]
  quantity of cyclic AMP suppressed to, as the maximum activity: about 10%

## COc1cc(N2CCCC2)cc(C)c1OCCCN1CCN(c2cccc3sccc23)CC1 [Example 1076]
Dopamine D2 receptor
  Ki: 1.2 nM
[1]
  Serotonin uptake inhibitory ratio (%) (300 nM): 87.8%
[2]
  Ki: 12.4 nM

## COc1cc(N2CCN(C(C)=O)CC2)cc(C)c1OCCCN1CCN(c2cccc3sccc23)CC1 [Example 1083]
Dopamine D2 receptor
  Ki: 0.3 nM
[1]
  Serotonin uptake inhibitory ratio (%) (300 nM): 96.3%
[2]
  Ki: 1.5 nM

## COC(=O)N1CCN(c2cc(C)c(OCCCN3CCN(c4cccc5sccc45)CC3)c(OC)c2)C(=O)C1 [Example 1080]
Dopamine D2 receptor
  Ki: 0.6 nM
[1]
  Serotonin uptake inhibitory ratio (%) (300 nM): 95.6%
[2]
  Ki: 3.4 nM

## CNc1cc(C)c(OCCCN2CCN(c3cccc4sccc34)CC2)c(OC)c1.Cl [Example 11, N-methyl-4-[3-(4-benzo[b]thiophen-4-yl-piperazin-1-yl)propoxy]-3-methoxy-5-methylaniline hydrochloride]
other
  melting point: 239.5 to 244 °C (dec.)
Dopamine D2 receptor
  Ki: 0.2 nM
[1]
  Serotonin uptake inhibitory ratio (%) (300 nM): 95.2%
[2]
  Ki: 4.4 nM

## COc1cc(C(=O)NCC(OC)OC)cc(C)c1OCCCN1CCN(c2cccc3sccc23)CC1 [Example 802]
Dopamine D2 receptor
  Ki: 0.6 nM
[1]
  Serotonin uptake inhibitory ratio (%) (300 nM): 96.6%
[2]
  Ki: 1.4 nM

## COc1cc(N(C)C)cc(C)c1OCCCN1CCN(c2cccc3sccc23)CC1.Cl [Example 15, 4-[3-(4-benzo[b]thiophen-4-yl-piperazin-1-yl)propoxy]-N,N-dimethyl-3-methoxy-5-methylaniline hydrochloride]
other
  melting point: 234.5 to 240.5 °C (dec.)
Dopamine D2 receptor
  Ki: 0.4 nM
[1]
  Serotonin uptake inhibitory ratio (%) (300 nM): 95.3%
[2]
  Ki: 5.9 nM

## COc1cc(NC(=O)CNC(=O)OC(C)(C)C)cc(C)c1OCCCN1CCN(c2cccc3sccc23)CC1 [Example 1059]
other
  melting point: 140.5 to 142.5 °C
Dopamine D2 receptor
  Ki: 0.4 nM
[1]
  Serotonin uptake inhibitory ratio (%) (300 nM): 97.2%
[2]
  Ki: 3.8 nM
